Experimental data reported in article PMC11719397, “Monophthalates of betulinic acid and related pentacyclic triterpenes inhibit efficiently the SOS-mediated nucleotide exchange and impact PI3K/AKT signaling in oncogenic K-RAS4B proteins” (RSC Advances, 2025).
≈ marks a conversion by molar mass, not a printed value.

How the values were obtained:
K-RAS4B^G12D [1] = molecular target: T1, K-RAS4B^G12D (Homo sapiens, UniProt P01116, G12D); assay: biochemical; conditions: for IC50: K-RAS4B GDP/GTP exchange, eight data points, at least three determinations
Target sequence in this assay (P01116 1-188 isoform P01116-2 G12D): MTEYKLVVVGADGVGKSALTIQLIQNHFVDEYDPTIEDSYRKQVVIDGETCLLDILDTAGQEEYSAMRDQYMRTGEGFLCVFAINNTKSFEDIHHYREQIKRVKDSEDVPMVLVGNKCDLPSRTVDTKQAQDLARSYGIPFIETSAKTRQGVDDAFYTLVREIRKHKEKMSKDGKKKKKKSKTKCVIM

K-RAS4B^G12D [2] = molecular target: T1, K-RAS4B^G12D; assay: cell-based; design: a fusion protein of LgBiT and full-length RAS; a fusion protein of SmBiT(q) and full-length RAS in cells; expressed in transfected cells; host or cells: HEK239T (so in the source); conditions: live cells; displacement of BI2852 from the K-Ras4B SI/II binding-site; read-out: K-RAS4B^G12D NanoBRET TE KD
Text: (§1) To obtain further information on the mode of action, selected GDP/GTP exchange inhibitors were studied in additional assays (Table 3). A target engagement assay, which is based on bioluminescence resonance energy transfer (BRET), was used to measure target engagement at protein complexes in live cells (Fig. 5a). The BRET effect results from an energy transfer between the target luciferase fusion protein and a cell-permeable fluorescent tracer in intact cells.
(§2) Fig. 5 Schematic illustrations of the RAS cellular target engagement and RAS:SOS protein–protein interaction assay. (a) NanoBRET target engagement (TE) assay: when the fusion proteins LgBiT-RAS and SmBiT(q)-RAS interact in live-cells, they form an active luciferase as a BRET donor. The BRET receptor is a fluorescent NanoBRET® tracer that binds specifically to K-RAS. K-RAS binders displace the tracer and reduce the BRET signal in a dose-dependent manner.
(§3) The NanoBRET® TE Intracellular RAS Assay uses NanoBiT® Technology, a structural complementation system comprised of a large luciferase subunit (LgBiT) and a small complementary peptide (SmBiT(q)). Specifically, a fusion protein of LgBiT and full-length RAS is co-expressed with a fusion protein of SmBiT(q) and full-length RAS in cells. When the RAS proteins interact and form multimers, the LgBiT and SmBiT(q) subunits come together to form an active luciferase enzyme that serves as the BRET donor. The energy acceptor is a cell-permeable fluorescent NanoBRET® tracer that binds specifically to RAS. […] After mixing the plate for 1 min and incubation at room temperature for 15 min 1 μL of NanoBRET TE RAS Tracer 01 (final concentration 1 μM) was added followed by another mixing step. After 2 h incubation (37 °C, 5% CO2) and 15 min at room temperature 5 μL of NanoBRET™ Nano-Glo® substrate was added followed by a mixing step.
Target sequence in this assay (P01116 1-188 isoform P01116-2 G12D): as above
Target sequence in this assay (P01116 1-188 isoform P01116-2 G12D): as above

K-RAS4B wild-type [3] = molecular target: K-RAS4B wild-type (Homo sapiens, UniProt P01116); assay: Nucleotide exchange assay (SOS1-mediated GDP/GTP exchange, GDP-Glo), K-RAS4B wild-type; format: biochemical; conditions: K-RAS4B GDP/GTP exchange; eight data points, at least three determinations; (*) single determination
[4] = molecular target: (GTP)K-RAS4B^wt:SOS1 complex (Homo sapiens, UniProt P01116+Q07889); assay: HTRF K-RAS^wt:SOS protein-protein interaction assay
Procedure: The interaction of (GTP)K-RAS4B^wt and SOS was measured with a HTRF assay using an SOS-specific antibody labeled with terbium cryptate as HTRF (homogeneous time-resolved fluorescence) donor and a K-RAS4B^wt specific antibody labeled with an HTRF acceptor (XL665).[52]
To test the compounds effect on the interaction of K-RAS and SOS1 proteins a commercial assay from Revvity (product code 64[sequence]) was used. The K-RAS WT/SOS1 PPI assay includes tagged human recombinant partners (K-RAS WT and SOS1) and labelled anti-tag reagents for HTRF detection. Without an inhibitor, K-RAS WT loaded with GTP binds to SOS1, and the binding of each detection reagent to its tagged target generates an HTRF signal. In the presence of K-RAS WT/SOS1 inhibitors or GTP competitors, the HTRF signal decreases.
After an incubation step for 10 min at room temperature 3 μL Tag1-KRAS protein was added followed by 7.5 μL detection mix containing anti-Tag2 antibody labeled with Terbium cryptate and anti-Tag1 antibody labeled with XL665. […] IC50 values were determined from the sigmoidal dose response curves with the Scigilian Analyze software (Scigilian, Monteral, Canada).

K-RAS4B^wt = molecular target: T2, K-RAS4B^wt (Homo sapiens, UniProt P01116); assay: NanoBRET target engagement assay, K-RAS4B^wt (displacement of BI2852 tracer from SI/SII site); format: cell-based; conditions: live cells; displacement of BI2852 from the K-Ras4B SI/II binding-site; read-out: K-RAS4B^wt NanoBRET TE KD
T2 construct: a fusion protein of LgBiT and full-length RAS; a fusion protein of SmBiT(q) and full-length RAS in cells; expressed in transfected cells; host or cells: HEK239T (so in the source)
Text: as §1, §2, §3

K-RAS4B G12V = K-RAS4B G12V (Homo sapiens, UniProt P01116, G12V); assay: Nucleotide exchange assay (SOS1-mediated GDP/GTP exchange, GDP-Glo), K-RAS4B G12V; format: biochemical; conditions: eight data points, at least three determinations, (*) single determination
[5] = system: a series of cancer cell lines; design: method as in PMID 25909174; conditions: read-out: cytotoxic IC50 against a series of cancer cell lines; cited from earlier work
[6] = system: AKT phosphorylation in A375 cells (K-RAS4B^wt); assay: HTRF AKT phosphorylation assay in A375 cells; format: cell-based; conditions: Homo sapiens, A-375; A375 cells (K-RAS4B^wt, BRAF mutation); two determinations; read-out: A375 pAKT inhibition IC50
Procedure: (§4) For selected betulinic acid derivatives quantitative ERK and AKT phosphorylation was measured in SNU-1 (K-RAS4B^G12D) and A375 cells (K-RAS4B^wt) to determine whether pentacyclic triterpenes act via the RAS-RAF-MEK-ERK or the RAS-PI3K-PDK1-AKT downstream cascade (Table 2). The betulinic acid derivatives tested, had no activity on the ERK pathway, but inhibited AKT phosphorylation with micromolar IC50 values in agreement with literature reports.[50,51] […] No activity was detected in A375 cells carrying a BRAF but no K-RAS mutation.
(§5) SNU-1 cells harbouring the K-RASG12D mutation (primary carcinoma of the stomach), were grown in RPMI medium with 10% FBS (fetal bovine serum) and 1% L-Gln. Cells were plated in white small volume cell culture 384 well microplates (Greiner BioOne GmbH) at a density of 50.000 cells per well/6 μL in RPMI medium with 1% L-glut (serum-free medium). The plated cells were placed in a high humidity incubator (37 °C, 5% CO2 and 90% humidity) to avoid evaporation of the small amount of medium for 3 hours before the compounds were added. With the Echo520 liquid handler the cells were treated with a 3-fold 8-point serial dilution of the compounds, with a top final concentration of 330 μM and a final DMSO concentration of 1%. After compound transfer, cells were incubated for 1 hour in the high humidity incubator before the cells were treated with 3 μL of 9 nM EGF diluted in serum-free medium (final EGF concentration in the well 3 nM) for 15 minutes. The lysis buffer from the Phospho-ERK 1/2 (Thr202/Tyr204)- and the Total ERK1/2 LANCE Ultra TR-FRET Cellular Detection Kit (PerkinElmer Inc.) was prepared to a 4-fold concentration in water. Then 3 μL of the lysis buffer were added to each well and the plates were shaken at 300 rpm for 30 minutes at room temperature. During this incubation the antibody detection mix was prepared according to the manufacturer's protocol. In the final step 3 μL of antibody detection mix were added to each well. The plates were sealed with an aluminium sticky foil and incubated over night at room temperature for 20 hours. The detection was performed with the EnVision2104 Multilabel Reader.

[7] = system: AKT phosphorylation in SNU-1 cells (K-RAS4B^G12D); assay: HTRF AKT phosphorylation assay in SNU-1 cells; format: cell-based; conditions: Homo sapiens, SNU1, read-out: SNU-1 pAKT inhibition IC50
Procedure: as §4, §5

[8] = system: ERK phosphorylation in SNU-1 cells (K-RAS4B^G12D); assay: HTRF ERK phosphorylation assay in SNU-1 cells; format: cell-based; conditions: Homo sapiens, SNU1, read-out: SNU-1 pERK inhibition IC50
Procedure: as §4, §5

[9] = system: ERK phosphorylation in A375 cells (K-RAS4B^wt); assay: HTRF ERK phosphorylation assay in A375 cells; format: cell-based; conditions: Homo sapiens, A-375; A375 cells (K-RAS4B^wt, BRAF mutation); two determinations; read-out: A375 pERK inhibition IC50
Procedure: as §4, §5

K-RAS4B wild-type [10] = assay: Nucleotide exchange assay (SOS1-mediated GDP/GTP exchange, GDP-Glo), K-RAS4B wild-type; format: biochemical; conditions: GDP/GTP exchange IC50 of wild-type versus G12D/G12V mutants

Sequence of (GTP)K-RAS4B^wt:SOS1 complex (P01116 1-188 isoform P01116-2): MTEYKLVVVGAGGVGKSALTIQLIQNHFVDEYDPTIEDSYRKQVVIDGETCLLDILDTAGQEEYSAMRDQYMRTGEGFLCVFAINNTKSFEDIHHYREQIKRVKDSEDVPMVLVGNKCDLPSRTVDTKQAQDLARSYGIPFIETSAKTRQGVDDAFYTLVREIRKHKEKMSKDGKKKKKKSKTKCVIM
Sequence of (GTP)K-RAS4B^wt:SOS1 complex (Q07889 564-1049 limits assumed): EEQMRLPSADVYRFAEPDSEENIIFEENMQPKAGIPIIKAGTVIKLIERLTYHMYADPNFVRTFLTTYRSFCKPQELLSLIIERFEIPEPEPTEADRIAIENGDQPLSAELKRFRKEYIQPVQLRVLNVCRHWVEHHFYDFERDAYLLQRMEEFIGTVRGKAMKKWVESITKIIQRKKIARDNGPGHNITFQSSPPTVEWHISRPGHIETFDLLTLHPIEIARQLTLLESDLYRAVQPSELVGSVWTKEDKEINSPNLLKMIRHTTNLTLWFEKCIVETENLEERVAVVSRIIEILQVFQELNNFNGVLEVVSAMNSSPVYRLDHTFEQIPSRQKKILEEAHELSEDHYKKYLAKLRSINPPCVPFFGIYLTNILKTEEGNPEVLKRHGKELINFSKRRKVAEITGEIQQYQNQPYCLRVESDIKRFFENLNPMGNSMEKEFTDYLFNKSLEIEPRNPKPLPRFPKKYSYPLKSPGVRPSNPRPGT
T2 sequence (P01116 1-188 isoform P01116-2): as the sequence (P01116 1-188 isoform P01116-2) above
T2 sequence (P01116 1-188 isoform P01116-2): as above
Sequence of K-RAS4B wild-type (Homo sapiens, UniProt P01116) (P01116 1-188 isoform P01116-2): as above
Sequence of K-RAS4B G12V (P01116 1-188 isoform P01116-2 G12V): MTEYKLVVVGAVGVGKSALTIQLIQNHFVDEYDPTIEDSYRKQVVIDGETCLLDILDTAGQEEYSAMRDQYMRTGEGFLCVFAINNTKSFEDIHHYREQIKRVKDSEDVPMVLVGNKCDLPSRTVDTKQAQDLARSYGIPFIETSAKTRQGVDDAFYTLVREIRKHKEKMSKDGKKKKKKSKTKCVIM

Compound	IC50 (K-RAS4B^G12D [1]) [µM]	Kd (K-RAS4B^G12D [2]) [µM]	IC50 (K-RAS4B wild-type [3]) [µM]	Kd [4] [µM]	solubility (Solubility) [µM]	Kd (K-RAS4B^wt) [µM]	IC50 (K-RAS4B G12V) [µM]	IC50 [5] [µM]	IC50 [6] [µM]	IC50 [7] [µM]	IC50 [8] [µM]	IC50 [9] [µM]	selectivity factor, mutant versus K-RAS4B^wt (K-RAS4B wild-type [10])	inhibition of GDP/GTP exchange (in words) (K-RAS4B^G12D [1]; K-RAS4B form mostly not given, inactive = IC50 > 100 μM (Fig. 3 legend))
C=C(C)[C@@H]1CC[C@]2(C(=O)O)CC[C@]3(C)[C@H](CC[C@@H]4[C@@]5(C)CC[C@H](OC(=O)c6sccc6C(=O)O)C(C)(C)[C@@H]5CC[C@]43C)[C@@H]12 [Compound 18]	1.83 ± 1.45	20.1	1.27 ± 0.69	> 50	255 (≈ 156 µg/mL)	21.8	–	–	–	–	–	–	–	–
C=C(C)[C@@H]1CC[C@]2(C(=O)O)CC[C@]3(C)[C@H](CC[C@@H]4[C@@]5(C)CC[C@H](OC(=O)c6ccccc6C(=O)O)C(C)(C)[C@@H]5CC[C@]43C)[C@@H]12 [Compound 19]	10.4 ± 4.7	–	15.3 ± 3.8	–	191 (≈ 116 µg/mL)	–	16.6 ± 5.2	≤ 10	> 1000	19	> 300	> 1000	–	–
C=C(C)[C@@H]1CC[C@]2(C(=O)O)CC[C@]3(C)[C@H](CC[C@@H]4[C@@]5(C)CC[C@H](OC(=O)c6nccnc6C(=O)O)C(C)(C)[C@@H]5CC[C@]43C)[C@@H]12 [Compound 23]	11.8 ± 1	–	23.3 ± 2.9	–	434 (≈ 263 µg/mL)	–	9.61 ± 4.82	–	> 1000	61.7	> 1000	> 1000	–	–
C=C(C)[C@@H]1CC[C@]2(C(=O)O)CC[C@]3(C)[C@H](CC[C@@H]4[C@@]5(C)CC[C@H](OC(=O)c6c(F)ccc(F)c6C(=O)O)C(C)(C)[C@@H]5CC[C@]43C)[C@@H]12 [Compound 24]	8.63 ± 3.72	–	15.7 ± 4.3	–	378 (≈ 242 µg/mL)	–	15.4 ± 2.9	–	> 1000	13	134	> 1000	–	–
C=C(C)[C@@H]1CC[C@]2(C(=O)O)CC[C@]3(C)[C@H](CC[C@@H]4[C@@]5(C)CC[C@H](OC(=O)c6cc(F)c(F)cc6C(=O)O)C(C)(C)[C@@H]5CC[C@]43C)[C@@H]12 [Compound 25]	5 ± 0.91	–	39.1 ± 5.4	–	240 (≈ 154 µg/mL)	–	9.79 ± 3.41	–	> 1000	18.1	> 300	> 1000	4–6	–
C=C(C)[C@@H]1CC[C@]2(C(=O)O)CC[C@]3(C)[C@H](CC[C@@H]4[C@@]5(C)CC[C@H](OC(=O)c6cc(OC)c(OC)cc6C(=O)O)C(C)(C)[C@@H]5CC[C@]43C)[C@@H]12 [Compound 26]	36.1 ± 14.7	–	> 100	–	158 (≈ 105 µg/mL)	–	26.4 ± 3.9	–	> 1000	83.7	> 300	> 1000	–	only moderate activity
C=C(C)[C@@H]1CC[C@]2(COC(=O)/C=C\C(=O)O)CC[C@]3(C)[C@H](CC[C@@H]4[C@@]5(C)CC[C@H](O)C(C)(C)[C@@H]5CC[C@]43C)[C@@H]12 [Compound 30]	6.8 ± 2.32	–	69.2 ± 6.8	–	–	–	3.19 ± 0.19	–	–	–	–	–	15–20	–
C=C(C)[C@@H]1CC[C@]2(COC(=O)CCC(=O)O)CC[C@]3(C)[C@H](CC[C@@H]4[C@@]5(C)CC[C@H](OC(=O)CCC(=O)O)C(C)(C)[C@@H]5CC[C@]43C)[C@@H]12 [Compound 32]	0.71 ± 0.18	29.1	1.01 ± 0.31	> 100	–	40.8	1.37 ± 0.28	–	–	–	–	–	–	–
COc1cc(C(=O)O)c(C(=O)OC2CCC3(C)C(CCC4(C)C3CC=C3C5CC(C)(C)CCC5(C(=O)O)CCC34C)C2(C)C)cc1OC (stereo not drawn) [Compound 47]	1.61 ± 0.85	> 50	2.71 ± 1.3	> 50	302 (≈ 201 µg/mL)	39	2.9 ± 0.51	–	–	–	–	–	–	–
